In US5401490A, “Markers of tissue hypoxia” (priority 1989, dated 1995):

Tests used:
[1] = test system: EMT-6 cells; assay: Hypoxic cell radiosensitizing ability (post-irradiation survival); type: cell-based, mouse; conditions: for sensitizer enhancement ratio (SER): 50 μM, 90% cell kill, hypoxic; for sensitisation to lethal effects of ionising radiation: in words
Procedure: Cell cultures were examined under oxic (air) and hypoxic incubation, with various concentrations of test drug, and at several doses of radiation.

[2] = Blood clearance and whole body elimination of radioactivity; type: in vivo, BALB/C mice; conditions: for major route of excretion: high kidney radioactivity at short time periods; for blood clearance / excretion of radioactivity from the body: i.v. bolus, ^125 I-labelled
Text: Each data point represents the mean of 6 animals.
Tables 1 and 2 show the percent of injected IAZG and IAZA respectively per gram of wet tissue for selected tissues excised from BALB/C mice bearing EMT-6 tumors. This tumor model is known to have a high hypoxic fraction (0.33) (16). […] Hepatobiliary excretion may play a role in blood clearance as evidenced by elevated liver radioactivity and the appearance of activity in the intestine. Some oxidative or reductive metabolites of the 2-nitroimidazoles may also become bound to liver tissue, as was postulated in an in vivo study with ^14 C-MISO (6). This supposition is supported by the persistence of liver radioactivity at longer time periods. […] At 8 and 24 hours thyroid levels of IAZG are 7.2 and 30.9% of the total body activity and for IAZA they are 7.9 and 33.8% of total body activity.
EXAMPLE 11 TISSUE DISTRIBUTION AND EXCRETION
Tumor propagation of EMT-6 tumors in BALB/C mice was accomplished by subcutaneous injection of a cell suspension (10^5 cells in 0.1 mL) as described previously (10). Tumors reached about 10 mm in diameter (≈0.5 g) at 12 to 14 days, at which time each animal was given a bolus intravenous injection of ^125 I-labelled test drug via the tail vein (40 to 60 kBq in 0.1 mL). At set time periods the animals were asphyxiated with CO2 and exsanguinated via cardiac puncture. Tissues were dissected, weighed wet into vials and counted for ^125 I-activity. Whole-body activity was determined by summation of total activity in tissues and in residual carcass, and blood activity was determined from the blood aliquot, assuming blood to be 6.5% of the total body weight.

[3] = Long term storage in solution; type: physicochemical
Text: Both IAZA and IAZG are synthesised, in high yield, from commercial precursors (FIG. 1) and undergo high-yield isotope exchange reactions with radioiodine to produce the required radiolabelled test compounds. […] Therefore, the compounds were stored as a dry residue in multidose vials under refrigeration and were reconstituted with the appropriate solvent just prior to use. IAZP is similarly synthesised. It will be known to those skilled in the art that other radio halogens may be similarly employed in the exchange reaction.

[4] = test system: EMT-6 cells; assay: Toxicity to hypoxic EMT-6 cells (surviving fraction); type: cell-based, mouse; conditions: for time required to reduce the cell population by 90%: 37° C.; for selective toxicity to hypoxic EMT-6 tumor cells: in words
Procedure: This represents a cytosidal toxicity about 10× that of MISO under the same conditions.
EXAMPLE 9 TOXICITY STUDIES
EMT-6 mouse fibrosarcoma cells in stirred cultures, as described previously (5), were exposed to various concentrations of the test drugs under hypoxic conditions. Cells were removed at various intervals and the colony-forming ability was assessed by plating the cells in drug-free complete MEM with 10% fetal calf serum. The data were used to construct plots of surviving fraction of EMT-6 cells against time of incubation with test drug at various drug concentrations (FIG. 2) as in Jette (13).

## O=[N+]([O-])c1nccn1[C@@H]1O[C@H](CI)[C@@H](O)[C@@H]1O [IAZA, 1-(5-iodo-5-deoxy-β-D-arabino-furanosyl)-2-nitroimidazole]
[1]
  sensitizer enhancement ratio (SER): ~1.4
  sensitisation to lethal effects of ionising radiation: sensitise these cells to the lethal effects of ionising radiation
[2]
  major route of excretion: via the urine
  blood clearance: initial rapid blood clearance
  excretion of radioactivity from the body: rapid excretion of radioactivity from the body
[3]
  stability on long term storage in solution: some decomposition of the pure compounds
[4]; 1.0 mM, hypoxic
  time required to reduce the cell population by 90%: 1.65 h
[4]
  selective toxicity to hypoxic EMT-6 tumor cells: selective toxicity to hypoxic EMT-6 tumor cells

## O=[N+]([O-])c1nccn1[C@@H]1O[C@H](CI)[C@H](O)[C@H](O)[C@H]1O [IAZG, 1-(6-iodo-6-deoxy-β-D-galactopyranosyl)-2-nitroimidazole]
[1]
  sensitizer enhancement ratio (SER): about 1.8
  sensitisation to lethal effects of ionising radiation: sensitise these cells to the lethal effects of ionising radiation
[1]; vs azomycin nucleoside class
  in vitro radiosensitizer efficiency, comparison: most efficient in vitro radiosensitizer of the azomycin nucleoside class produced to date
[2]; blood and whole body, IAZG vs IAZA
  initial clearance rates, comparison: greater for IAZG than IAZA
[2]
  major route of excretion: via the urine
  blood clearance: initial rapid blood clearance
  excretion of radioactivity from the body: rapid excretion of radioactivity from the body
[3]
  stability on long term storage in solution: some decomposition of the pure compounds
[4]; 1.0 mM, hypoxic
  time required to reduce the cell population by 90%: about 1.75 h
[4]; 1.0 mM, hypoxic, same conditions
  cytosidal toxicity relative to MISO: about 10 ×
[4]
  selective toxicity to hypoxic EMT-6 tumor cells: selective toxicity to hypoxic EMT-6 tumor cells
[4]; oxic
  toxicity under oxic conditions: absence of toxicity under oxic conditions
